The values below come from publication PMC13289212, “HIVIL: A human in vitro inflammatory liver model recapitulates immune-associated drug effects with high predictivity” (NAM journal, 2025).

Structures are written as SMILES. “And” between values parts separate entries of the source, which are not always exact repeats. Equal entries are not always repeated. Where two headings read alike, the source gives them in different places.

For data set [1], the system named is HIVIL (iKCs co-cultured with iHeps). The data set is described as follows: AlamarBlue cell viability in HIVIL. How it is done: (§1) Stock solutions of drugs were prepared in dimethyl sulfoxide (DMSO) and dissolved in medium prior to use. […] For these two drugs, the highest DMSO concentration was 1 %. Supernatant was collected at 48 hr for measurement of cytokines, and remaining cells were subjected to viability assay prior to lysis for RNA extraction.

Data set [2] can be described thus: AlamarBlue cell viability in HIVIL. The note with it: human. How it is done: as §1
The nature of data set [3]: Cell viability of iHeps mono-culture. In kind it is cell-based. Particulars: human. An excerpt:
Human iPSC cell line iPS (IMR90)-4 was purchased from WiCell Research Institute (Madison, WI), and maintained with a feeder-free method according to the instruction from […] Technologies (Vancouver, BC, Canada). The protocol of differentiation towards iKCs and iHeps as described previously with slight modification ([Tasnim et al., 2019]; [Cai et al., 2012]), respectively. The re-optimized protocol to generate iKCs is discussed in Results section. More details are provided in Supplementary Methods. After differentiation, iKCs was harvested using 0.05 % trypsin-EDTA (Gibco, Waltham, Massachusetts, USA), while iHeps were dissociated with TrypLE^TM (Gibco). iHep suspension was further filtered through a 40 µm cell strainer to remove extracellular matrix clumps. Cell suspension was centrifuged at 1000 rpm for 5 min. For co-culture set up, tissue culture plates were coated with Rat tail collagen I (Gibco) diluted 100-fold in 0.02 N acetic acid, and incubated at 37 °C for 1 h and washed 3 times with PBS. According to the protocol optimized by [Tasnim et al. (2019)], iKCs was firstly seeded at a density of 14,000 per well on 96-well plate with Advanced DMEM (plus supplements) containing 5 % FBS. On the following day, iHeps were added at a density of 35,000 per well in Williams’ Medium E (plus supplements) (iHep: iKCs ratio = 2.5: 1). […]

Data set [4] has as its system IL-6. The data set is described as follows: IL-6 ELISA in iPSC(F4)-derived HIVIL. In kind it is cell-based, human. How it is done: Enzyme-linked immunosorbent assay (ELISA) for measurement of cytokines: Interleukin-6 (IL-6), interleukin-10 (IL-10) and tumor necrosis factor alpha (TNFα) levels in the media were measured using the corresponding human-based ELISA kits (Abcam, Cambridge, United Kingdom) according to manufacturer’s instructions. The cytokine production from dosed cells was normalized with the viability value from the same well. The normalized cytokine level upon drug treatments was further presented as percentage of DMSO+LPS. Normalization to viability per well ensures that any changes in cytokines are not due to changes in cell numbers upon drug treatment and normalization to DMSO+LPS allows better comparison between different batches of experiments. This normalization approach has been used in previous studies (Rose et al. 2016).

Data set [5] concerns IL-6. Nature of the data set: IL-6 ELISA in HIVIL (iKCs co-cultured with iHeps, LPS, 48 hr). In kind it is cell-based, human. Particulars: HIVIL co-treated with TVX and LPS.
The conditions of data set [6]: FDA-labeling information; ref Chen et al. 2016; cited from earlier work.
For data set [7] the following is noted: Cammett et al. 2009, Mendes et al. 2014, cited from earlier work.

Take `N[C@@H]1[C@H]2CN(c3nc4c(cc3F)c(=O)c(C(=O)O)cn4-c3ccc(F)cc3F)C[C@@H]12` [TVX, Trovafloxacin]: the IC50 in data set [1] (Homo sapiens, 48 h, read-out: IC50: viability) was found to be 87.7 µM. Also, the “viability profiles among iHeps, iKCs and HIVIL” value in data set [1] (comparison of mono-cultures and co-culture) is “similar”. In data set [2], this compound came in with a viability at 48 hr of 63.4 ± 5%. For the same compound, the viability in data set [3] was found to be 53.7%. For the same compound, the “increase in IL-6” value in data set [4] (6.25 μM) stood at 1.2 fold. The “inhibition of IL-6 production” value in data set [4] (higher concentrations) was 80% and 97%. Further, in data set [5], the “IL-6 decline after 24 h” value is recorded as 57.3%. Further, in data set [6], the DILIrank result is listed as “most”. The Cmax is 5 µM in data set [7] (ref in each cell: Ademisoye et al. 2018, Xu et al. 2008, Agabeyoglu and Incecayir 2009, Rojanasthien et al. 2007, Reunanen et al. 1992, Li et al. 2002, Hong-mei et al. 2013, Bareggi et al. 1987, Jiang et al. 2008); 5 µM in data set [7] (ref in each cell: Xu et al. 2008).
